Reference: ChEMBL document CHEMBL5291721, “A preclinical secondary pharmacology resource illuminates target-adverse drug reaction associations of marketed drugs” (Nat Commun, 2023)

What was measured:
[1] = biological target: Sodium-dependent dopamine transporter (Homo sapiens, UniProt Q01959)
[2] = biological target: T1, 5-hydroxytryptamine receptor 1A (Homo sapiens, UniProt P08908); type: functional, cell-based
T1 sequence (P08908 whole entry): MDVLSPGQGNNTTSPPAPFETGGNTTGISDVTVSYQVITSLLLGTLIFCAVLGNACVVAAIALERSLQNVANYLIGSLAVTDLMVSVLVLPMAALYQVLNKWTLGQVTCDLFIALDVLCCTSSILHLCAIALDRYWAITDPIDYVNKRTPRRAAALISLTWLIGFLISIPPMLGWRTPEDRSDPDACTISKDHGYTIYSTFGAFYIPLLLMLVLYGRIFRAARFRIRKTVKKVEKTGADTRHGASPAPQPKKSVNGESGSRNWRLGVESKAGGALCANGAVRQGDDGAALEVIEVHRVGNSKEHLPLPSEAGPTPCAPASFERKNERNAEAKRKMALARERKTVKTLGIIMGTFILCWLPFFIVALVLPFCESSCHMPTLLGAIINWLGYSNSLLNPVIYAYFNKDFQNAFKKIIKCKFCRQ

[3] = biological target: Delta-type opioid receptor (Homo sapiens, UniProt P41143)
Chain of Delta-type opioid receptor (P41143 whole entry): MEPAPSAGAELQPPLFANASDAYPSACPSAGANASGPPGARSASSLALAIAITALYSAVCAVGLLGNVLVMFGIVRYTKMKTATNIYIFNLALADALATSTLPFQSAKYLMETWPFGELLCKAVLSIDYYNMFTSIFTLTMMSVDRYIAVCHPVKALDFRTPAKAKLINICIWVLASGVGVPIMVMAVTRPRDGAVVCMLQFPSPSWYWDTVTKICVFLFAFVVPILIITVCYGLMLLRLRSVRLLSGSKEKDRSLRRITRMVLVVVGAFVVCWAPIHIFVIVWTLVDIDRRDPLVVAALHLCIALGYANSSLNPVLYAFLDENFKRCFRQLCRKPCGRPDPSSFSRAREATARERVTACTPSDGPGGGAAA

D(1A) dopamine receptor = D(1A) dopamine receptor (Homo sapiens, UniProt P21728); type: functional, cell-based
Chain of D(1A) dopamine receptor (P21728 whole entry): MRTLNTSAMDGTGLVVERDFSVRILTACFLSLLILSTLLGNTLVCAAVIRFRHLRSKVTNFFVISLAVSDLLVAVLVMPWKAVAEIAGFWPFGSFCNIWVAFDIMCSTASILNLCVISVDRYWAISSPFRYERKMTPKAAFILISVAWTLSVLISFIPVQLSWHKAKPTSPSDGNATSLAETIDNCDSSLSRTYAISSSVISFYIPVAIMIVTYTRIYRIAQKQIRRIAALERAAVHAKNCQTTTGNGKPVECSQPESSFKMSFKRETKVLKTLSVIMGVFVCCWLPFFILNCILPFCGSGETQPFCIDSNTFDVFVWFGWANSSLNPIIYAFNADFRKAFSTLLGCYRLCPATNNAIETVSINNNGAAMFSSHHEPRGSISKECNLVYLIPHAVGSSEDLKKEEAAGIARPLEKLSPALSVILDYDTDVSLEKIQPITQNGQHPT

Adenosine receptor A2a = Adenosine receptor A2a (Homo sapiens, UniProt P29274)
Chain of Adenosine receptor A2a (P29274 whole entry): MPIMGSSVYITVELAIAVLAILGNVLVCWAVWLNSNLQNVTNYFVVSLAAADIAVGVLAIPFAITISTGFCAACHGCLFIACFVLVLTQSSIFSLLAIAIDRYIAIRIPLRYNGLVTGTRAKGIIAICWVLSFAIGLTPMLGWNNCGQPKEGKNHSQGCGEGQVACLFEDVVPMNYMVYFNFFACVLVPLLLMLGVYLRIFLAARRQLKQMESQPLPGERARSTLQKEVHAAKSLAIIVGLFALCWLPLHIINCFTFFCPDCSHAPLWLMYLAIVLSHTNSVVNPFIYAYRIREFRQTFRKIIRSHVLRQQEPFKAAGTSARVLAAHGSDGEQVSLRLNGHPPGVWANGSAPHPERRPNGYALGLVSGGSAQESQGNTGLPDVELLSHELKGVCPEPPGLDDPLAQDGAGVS

[4] = biological target: T2, Gastrin/cholecystokinin type B receptor (Homo sapiens, UniProt P32239)
T2 sequence (P32239 whole entry): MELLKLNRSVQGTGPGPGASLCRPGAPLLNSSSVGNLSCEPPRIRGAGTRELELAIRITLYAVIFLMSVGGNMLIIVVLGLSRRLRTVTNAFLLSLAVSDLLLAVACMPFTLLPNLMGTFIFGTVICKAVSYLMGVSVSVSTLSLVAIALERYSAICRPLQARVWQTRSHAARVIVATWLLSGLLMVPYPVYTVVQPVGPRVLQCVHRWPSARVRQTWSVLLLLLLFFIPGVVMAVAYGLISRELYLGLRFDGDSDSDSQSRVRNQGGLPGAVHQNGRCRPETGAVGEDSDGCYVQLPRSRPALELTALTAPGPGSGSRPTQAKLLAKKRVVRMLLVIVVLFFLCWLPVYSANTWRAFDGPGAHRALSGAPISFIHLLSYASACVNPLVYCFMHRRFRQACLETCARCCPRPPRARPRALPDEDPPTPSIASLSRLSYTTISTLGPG

[5] = biological target: Beta-2 adrenergic receptor (Homo sapiens, UniProt P07550); type: functional, cell-based
Chain of Beta-2 adrenergic receptor (P07550 whole entry): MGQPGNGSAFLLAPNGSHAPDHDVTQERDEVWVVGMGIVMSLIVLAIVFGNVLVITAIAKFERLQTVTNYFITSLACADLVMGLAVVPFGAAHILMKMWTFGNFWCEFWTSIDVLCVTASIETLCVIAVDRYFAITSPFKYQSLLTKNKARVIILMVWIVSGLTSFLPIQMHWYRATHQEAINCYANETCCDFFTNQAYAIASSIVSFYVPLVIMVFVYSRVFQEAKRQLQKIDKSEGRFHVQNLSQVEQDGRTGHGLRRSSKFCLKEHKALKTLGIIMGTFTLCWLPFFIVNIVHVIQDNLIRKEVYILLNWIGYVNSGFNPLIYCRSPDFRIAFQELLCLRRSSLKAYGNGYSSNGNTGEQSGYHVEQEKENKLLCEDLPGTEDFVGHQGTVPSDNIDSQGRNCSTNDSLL

[6] = biological target: 5-hydroxytryptamine receptor 2B (Homo sapiens, UniProt P41595); type: functional, cell-based
Chain of 5-hydroxytryptamine receptor 2B (P41595 whole entry): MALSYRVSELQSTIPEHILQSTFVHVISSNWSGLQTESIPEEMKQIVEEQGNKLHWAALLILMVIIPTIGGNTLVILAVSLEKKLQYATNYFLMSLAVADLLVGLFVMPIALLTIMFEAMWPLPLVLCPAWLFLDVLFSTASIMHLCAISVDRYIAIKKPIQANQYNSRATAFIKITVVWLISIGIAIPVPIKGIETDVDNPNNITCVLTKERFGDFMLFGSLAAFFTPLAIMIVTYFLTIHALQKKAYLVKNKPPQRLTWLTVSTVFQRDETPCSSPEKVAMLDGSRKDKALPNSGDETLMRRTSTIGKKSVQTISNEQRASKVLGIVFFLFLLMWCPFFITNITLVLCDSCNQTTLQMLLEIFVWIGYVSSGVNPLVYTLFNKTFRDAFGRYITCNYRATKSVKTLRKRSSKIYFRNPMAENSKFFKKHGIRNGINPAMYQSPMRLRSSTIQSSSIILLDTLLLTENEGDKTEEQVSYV

[7] = biological target: T3, Alpha-1A adrenergic receptor (Homo sapiens, UniProt P35348); type: functional, cell-based
T3 sequence (P35348 whole entry): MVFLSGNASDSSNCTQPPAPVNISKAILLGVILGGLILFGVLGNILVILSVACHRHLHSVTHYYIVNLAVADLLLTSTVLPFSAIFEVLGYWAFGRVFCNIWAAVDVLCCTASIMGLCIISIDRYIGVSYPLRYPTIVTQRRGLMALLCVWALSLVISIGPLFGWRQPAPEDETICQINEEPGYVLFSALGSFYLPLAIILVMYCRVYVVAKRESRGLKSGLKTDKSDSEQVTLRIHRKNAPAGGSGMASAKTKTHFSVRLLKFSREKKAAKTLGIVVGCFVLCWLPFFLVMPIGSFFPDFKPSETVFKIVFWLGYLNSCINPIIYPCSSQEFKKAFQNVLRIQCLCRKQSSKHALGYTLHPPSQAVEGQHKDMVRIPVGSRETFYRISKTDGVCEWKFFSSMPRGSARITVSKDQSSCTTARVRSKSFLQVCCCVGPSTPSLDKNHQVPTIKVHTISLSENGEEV

Histamine H2 receptor = Histamine H2 receptor (Homo sapiens, UniProt P25021); type: functional, cell-based
Chain of Histamine H2 receptor (P25021 whole entry): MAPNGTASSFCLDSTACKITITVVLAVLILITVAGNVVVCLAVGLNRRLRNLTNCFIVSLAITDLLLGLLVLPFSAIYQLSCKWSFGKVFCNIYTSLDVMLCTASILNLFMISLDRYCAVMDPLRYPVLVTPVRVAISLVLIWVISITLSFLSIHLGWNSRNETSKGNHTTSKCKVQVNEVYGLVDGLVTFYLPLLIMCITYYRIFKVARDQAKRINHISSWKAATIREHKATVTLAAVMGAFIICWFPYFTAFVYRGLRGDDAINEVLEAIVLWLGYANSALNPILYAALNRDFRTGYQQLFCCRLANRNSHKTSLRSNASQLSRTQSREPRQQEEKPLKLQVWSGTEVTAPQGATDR

[8] = biological target: T4, 5-hydroxytryptamine receptor 2C (Homo sapiens, UniProt P28335)
T4 sequence (P28335 whole entry): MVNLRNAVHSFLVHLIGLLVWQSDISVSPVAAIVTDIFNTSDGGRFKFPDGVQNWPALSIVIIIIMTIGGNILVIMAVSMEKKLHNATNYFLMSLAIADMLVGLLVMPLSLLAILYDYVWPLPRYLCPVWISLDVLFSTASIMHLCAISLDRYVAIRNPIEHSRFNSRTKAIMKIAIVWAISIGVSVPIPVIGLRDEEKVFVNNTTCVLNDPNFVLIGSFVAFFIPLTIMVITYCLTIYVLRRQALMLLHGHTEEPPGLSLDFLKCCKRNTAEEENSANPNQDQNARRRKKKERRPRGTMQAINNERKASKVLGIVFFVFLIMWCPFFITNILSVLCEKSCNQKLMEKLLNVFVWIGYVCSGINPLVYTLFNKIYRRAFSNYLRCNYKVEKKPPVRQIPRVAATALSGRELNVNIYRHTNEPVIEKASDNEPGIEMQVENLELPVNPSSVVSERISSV

[9] = biological target: Glutamate receptor ionotropic, NMDA 1 (Rattus norvegicus, UniProt P35439)
[10] = biological target: T3, Alpha-1A adrenergic receptor; type: functional, cell-based; remark: listed apart in the source
[11] = biological target: Gamma-aminobutyric acid receptor subunit alpha-1 (Rattus norvegicus, UniProt P62813)
Chain of Gamma-aminobutyric acid receptor subunit alpha-1 (P62813 whole entry): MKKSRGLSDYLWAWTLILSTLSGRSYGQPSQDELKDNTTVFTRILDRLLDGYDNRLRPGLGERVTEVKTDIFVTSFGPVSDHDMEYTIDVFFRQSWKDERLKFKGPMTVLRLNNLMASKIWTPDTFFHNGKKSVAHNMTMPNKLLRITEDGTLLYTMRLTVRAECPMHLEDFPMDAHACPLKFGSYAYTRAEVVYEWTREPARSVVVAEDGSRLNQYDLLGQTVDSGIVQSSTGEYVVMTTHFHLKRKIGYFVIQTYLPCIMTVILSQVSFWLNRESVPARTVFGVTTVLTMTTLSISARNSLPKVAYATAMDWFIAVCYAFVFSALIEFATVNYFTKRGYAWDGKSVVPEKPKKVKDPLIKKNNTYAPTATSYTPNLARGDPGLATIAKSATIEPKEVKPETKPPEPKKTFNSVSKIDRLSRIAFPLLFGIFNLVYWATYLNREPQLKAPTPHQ

[12] = biological target: T3, Alpha-1A adrenergic receptor; type: functional, cell-based; remark: listed apart in the source
Thromboxane A2 receptor = biological target: T5, Thromboxane A2 receptor (Homo sapiens, UniProt P21731)
T5 sequence (P21731 whole entry): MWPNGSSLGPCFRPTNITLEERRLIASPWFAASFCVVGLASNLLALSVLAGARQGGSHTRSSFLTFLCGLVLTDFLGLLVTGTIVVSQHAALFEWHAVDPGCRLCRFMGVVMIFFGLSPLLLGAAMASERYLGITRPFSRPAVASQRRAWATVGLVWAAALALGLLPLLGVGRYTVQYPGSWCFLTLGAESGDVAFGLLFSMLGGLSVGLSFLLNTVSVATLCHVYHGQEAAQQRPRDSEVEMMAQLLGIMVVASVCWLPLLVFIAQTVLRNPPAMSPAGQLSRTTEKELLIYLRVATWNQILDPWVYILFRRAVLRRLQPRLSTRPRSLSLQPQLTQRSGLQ

Mu-type opioid receptor = Mu-type opioid receptor (Homo sapiens, UniProt P35372)
Chain of Mu-type opioid receptor (P35372 whole entry): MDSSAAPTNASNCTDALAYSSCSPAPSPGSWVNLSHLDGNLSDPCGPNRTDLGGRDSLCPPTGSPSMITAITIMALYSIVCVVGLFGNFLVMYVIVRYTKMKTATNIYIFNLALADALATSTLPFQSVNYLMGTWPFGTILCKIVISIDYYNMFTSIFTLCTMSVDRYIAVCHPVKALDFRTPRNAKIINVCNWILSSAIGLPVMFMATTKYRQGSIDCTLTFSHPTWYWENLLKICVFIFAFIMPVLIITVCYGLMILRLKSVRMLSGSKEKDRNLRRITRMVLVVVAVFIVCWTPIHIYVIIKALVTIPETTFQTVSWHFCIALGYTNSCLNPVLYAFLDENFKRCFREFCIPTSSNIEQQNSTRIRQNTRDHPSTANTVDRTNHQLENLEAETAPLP
Further: assay procedure not described here.

Chain of Sodium-dependent dopamine transporter (Q01959 whole entry): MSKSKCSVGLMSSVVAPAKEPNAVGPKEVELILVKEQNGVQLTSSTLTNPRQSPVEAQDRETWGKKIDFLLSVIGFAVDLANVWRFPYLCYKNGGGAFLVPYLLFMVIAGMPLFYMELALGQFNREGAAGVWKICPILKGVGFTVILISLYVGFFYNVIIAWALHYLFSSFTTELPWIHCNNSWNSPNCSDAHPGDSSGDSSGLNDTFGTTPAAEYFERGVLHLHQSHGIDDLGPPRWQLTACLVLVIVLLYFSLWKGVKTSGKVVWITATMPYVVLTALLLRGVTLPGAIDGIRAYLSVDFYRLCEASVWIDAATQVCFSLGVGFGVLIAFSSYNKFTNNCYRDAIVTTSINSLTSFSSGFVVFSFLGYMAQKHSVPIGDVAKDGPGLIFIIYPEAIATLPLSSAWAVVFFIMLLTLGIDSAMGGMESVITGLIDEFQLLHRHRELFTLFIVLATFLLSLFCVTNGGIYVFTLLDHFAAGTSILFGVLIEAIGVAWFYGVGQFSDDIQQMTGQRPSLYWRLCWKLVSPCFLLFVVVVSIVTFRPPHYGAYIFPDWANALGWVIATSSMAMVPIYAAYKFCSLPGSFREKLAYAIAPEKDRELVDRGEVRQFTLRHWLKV

AC50 [1] [µM] | AC50 [2] [µM] | AC50 [3] [µM] | AC50 (D(1A) dopamine receptor) [µM] | AC50 (Adenosine receptor A2a) [µM] | AC50 [6] [µM] | AC50 (Histamine H2 receptor) [µM] | AC50 [8] [µM] | AC50 [9] [µM] | AC50 (Mu-type opioid receptor) [µM] | Compound | AC50 [4] [µM] | AC50 [5] [µM] | AC50 [7] [µM] | AC50 [10] [µM] | AC50 [11] [µM] | AC50 [12] [µM] | AC50 (Thromboxane A2 receptor) [µM]
> 30 | > 30 | > 30 | > 30 | > 30 | > 30 | > 30 | > 30 | > 30 |  | CC1(C)S[C@@H]2[C@H](NC(=O)C(C(=O)O)c3ccccc3)C(=O)N2[C@H]1C(=O)O (some centres undefined) [CARBENICILLIN] | > 30 | > 30 | > 30 | > 30 |  |  | 
> 30 | > 30 | > 30 | > 30 | > 30 | > 30 | > 30 | > 30 | > 30 |  | CCC(=O)O[C@]1(C(=O)CCl)[C@@H](C)C[C@H]2[C@@H]3CCC4=CC(=O)C=C[C@]4(C)[C@@]3(F)[C@@H](O)C[C@@]21C [CLOBETASOL PROPIONATE] | > 30 | > 30 | > 30 | > 30 | > 30 |  | 
> 10 | > 10 | > 30 | > 10 | > 10 | > 10 | > 10 | > 30 | > 10 | > 30 | CNC(=C[N+](=O)[O-])NCCSCc1csc(CN(C)C)n1 [NIZATIDINE] |  |  |  |  | > 10 |  | > 10
 |  |  |  |  |  |  |  |  |  | COc1ccc2[nH]c([S+]([O-])Cc3ncc(C)c(OC)c3C)nc2c1 (centres undefined) [OMEPRAZOLE] |  |  |  |  |  | > 30 | 
 |  |  |  |  |  |  |  |  |  | CCCCC1C(=O)N(c2ccccc2)N(c2ccc(O)cc2)C1=O (centres undefined) [OXYPHENBUTAZONE ANHYDROUS] |  |  |  |  |  | > 30 | 
 |  |  |  |  |  |  |  |  |  | O=C(O)CN(CCN(CC(=O)O)CC(=O)O)CCN(CC(=O)O)CC(=O)O [PENTETIC ACID] |  |  |  |  |  | 1.28 | 
 |  |  |  |  |  |  |  |  |  | Nc1cccc2c1C(=O)N(C1CCC(=O)NC1=O)C2=O (centres undefined) [POMALIDOMIDE] |  |  |  |  |  | > 30 | 

Compound | AC50 [1] [µM] | AC50 [2] [µM] | AC50 [3] [µM] | AC50 (D(1A) dopamine receptor) [µM] | AC50 (Adenosine receptor A2a) [µM] | AC50 [6] [µM] | AC50 (Histamine H2 receptor) [µM] | AC50 [8] [µM] | AC50 [9] [µM] | AC50 (Mu-type opioid receptor) [µM] | AC50 [4] [µM] | AC50 [5] [µM] | AC50 [7] [µM] | AC50 [10] [µM] | AC50 [11] [µM] | AC50 [12] [µM] | AC50 (Thromboxane A2 receptor) [µM]
CC(C)NC(=N)NC(=N)Nc1ccc(Cl)c(Cl)c1 [CHLORPROGUANIL] |  | > 30 | > 30 | > 30 |  | 12.2 | > 30 | 7.9 | > 30 |  |  | > 30 | > 30 | 12 | > 30 |  | 
COc1ccccc1OC1(C)OC(=O)c2ccccc2O1 (centres undefined) [GUAIMESAL] | > 30 |  |  |  | > 30 |  |  |  |  |  | > 30 |  |  |  |  | > 30 | > 30
CC(CN1c2ccccc2Sc2ccccc21)N(C)C (centres undefined) [PROMETHAZINE] | > 10 | > 10 | > 30 | > 10 | > 30 | 1.4 | > 10 | 0.5 | > 10 |  | > 30 | > 30 | > 30 | 1.7 | > 10 |  | > 30
